Results: patent publication US12414566B2, “Safener containing herbicidal oil dispersion” (ARYSTA LIFESCIENCE INC, priority 2017, dated 2025)
Read-outs that look alike come from different tables or passages of the source.

Assay: Chemical stability in butyl benzoate
Type: physicochemical

Structure (SMILES): COc1nn(C(=O)[N-]S(=O)(=O)c2ccccc2OC(F)(F)F)c(=O)n1C.[Na+] [Flucarbazone sodium]
- chemical stability in the butyl benzoate: chemically stable

Structure (SMILES): CC(Oc1ccc(Oc2nc3ccc(Cl)cc3o2)cc1)C(=O)O (centres unmarked) [fenoxaprop]
- chemical stability in the butyl benzoate (room temperature or accelerated temperature): chemically stable
